Assay results reported in patent publication US20040241166A1, “Use of inhibitors of ikk-beta and method for discovery of said inhibitors” (priority 2001, published 2004).

Tests used:
IKK complex = assay: Immunoprecipitation and kinase assay of IKK complex from stimulated HUVEC (GST-IκB-α phosphorylation); format: cell-based, human
Procedure: Cells were incubated as indicated and cytosol extracts were made. Immunoprecipitation (IP) with antikinase antibodies as indicated was followed by a kinase assay using the substrate GST.IκB-α in the presence of ^32P-ATP. A time-dependent phosphorylation of the substrate is shown in each case after stimulation of HUVEC with blood platelets (PLT; 2×10^8/ml) (FIG. 6A), IL-1β (100 pg/ml) (FIG. 6B) or TNF (1.67 ng/ml) (FIG. 6C). A representative experiment is shown for each case (n=3). FIG. 6D: the kinase assays were scanned and analysed densitometrically.
Cytosol extracts were subjected to immunoprecipitation (IP) (7) in TNT buffer containing 1 mM dithiothreitol, 0.5 μM 4-(2-aminoethyl)-benzenesulfonyl fluoride (AEBSF) and 0.75 μg/ml each of leupeptin, antipain, aprotinin, pepstatin A and chymostatin (Sigma). […] After washing three times with TNT and kinase buffer each time (20 mM HEPES, pH 8.0; 10 mM MgCl2, 100 μM Na3VO4; 20 mM β-glycerophosphate; 50 mM NaCl; 2 mM dithiothreitol; 0.5 μM AEBSF; 0.75 μg/ml each of leupeptin, antipain, aprotinin, pepstatin A, chymostatin), the precipitated proteins were analysed by a kinase assay. […] Proteins were analysed with PAGE and visualised by means of autoradiography. […]

IκB-α and IκB-ε = assay: Western blot of IκB-α/IκB-ε proteolysis in stimulated HUVEC; format: cell-based, human
Procedure: FIG. 5A: nuclear extracts from HUVEC stimulated with blood platelets (PLT; 2×10^8/ml) were examined by EMSA for NF-κB or Sp-1 binding, which is shown in brackets. FIG. 5B: cytosol extracts from cells stimulated with blood platelets were analysed by means of western blots. The proteins IκB-α, IκB-ε, IKK-α and IKK-β are indicated by arrow heads. α-Actin was used as a loading control. FIG. 5C: cytosol extracts from cells stimulated with IL-β (100 pg/ml) were examined by means of western blots. FIG. 5D: cells were incubated with TNF (1.67 ng/ml) and cytosol extracts were examined by means of western blots. The top arrow indicates the phosphorylated forms of IκB-α or IκB-ε. A representative blot is shown for all cases (n=3).
Cytosol extracts were isolated, and electrophoresis and blotting were carried out as described in the prior art (6, 7). After transfer, the membranes were incubated with antibodies to IκB-α (Santa Cruz Biotechnology, Heidelberg), IκB-ε (Prof. N. Rice, NIH, Frederick, Md.), IKK-α, IKK-β (Santa Cruz Biotechnology) or α-actin (Sigma). The proteins were visualised on X-ray film using a western blot chemiluminescence reagent (NEN Life Science Products). Protein sizes were confirmed by means of molecular weight standards (Amersham Pharmacia Biotech, Braunschweig, Bio-Rad, Munich). […]

“IL-1β: cytokine used as stimulus of HUVEC, 100 pg/ml” was tested, and the “time for which IKK activation is maintained” value (IKK complex) was “at least 90 minutes”, the “time of IKK activation peak” value (IKK complex) was 45 min and the “beginning of IκB-α degradation after incubation” value (IκB-α and IκB-ε) was 15 min. The “time of significant IκB-ε proteolysis” value (IκB-α and IκB-ε) was 60 min.
